Assay results reported in patent publication US20250382344A1, “Soluble GLP1/GIP/NPY2 Receptor Triple Agonists” (Boehringer Ingelheim International GmH, priority 2024, published 2025).
Read-outs that look alike come from different tables or passages of the source.

Legend:
hGLP1R = biological target: T1, hGLP1R (Homo sapiens, UniProt P43220); test: hGLP1R CreLuc assay in 0.5% and 100% plasma (HEK-293 CRE-luciferase reporter cells); format: cell-based; settings: HEK-293 reporter cells
T1 construct: expressed in transfected cells; host or cells: HEK-293 CRE-luciferase reporter cells

[1] = Solubility in 0.1 M phosphate buffer at pH 7; format: physicochemical; settings: 0.1 M phosphate buffer at pH 7, 10 mg/mL final peptide concentration, shaking 2 hours at room temperature, peptides as TFA-salts, measured sample pH 6.5-7.0
hGIPR = biological target: T2, hGIPR (Homo sapiens, UniProt P48546); test: hGIPR CreLuc assay in 0.5% and 100% plasma (CHO CRE-luciferase reporter cells); format: cell-based
T2 construct: expressed in transfected cells; host or cells: CHO CRE-luciferase reporter cells
T2 sequence (P48546 22-466): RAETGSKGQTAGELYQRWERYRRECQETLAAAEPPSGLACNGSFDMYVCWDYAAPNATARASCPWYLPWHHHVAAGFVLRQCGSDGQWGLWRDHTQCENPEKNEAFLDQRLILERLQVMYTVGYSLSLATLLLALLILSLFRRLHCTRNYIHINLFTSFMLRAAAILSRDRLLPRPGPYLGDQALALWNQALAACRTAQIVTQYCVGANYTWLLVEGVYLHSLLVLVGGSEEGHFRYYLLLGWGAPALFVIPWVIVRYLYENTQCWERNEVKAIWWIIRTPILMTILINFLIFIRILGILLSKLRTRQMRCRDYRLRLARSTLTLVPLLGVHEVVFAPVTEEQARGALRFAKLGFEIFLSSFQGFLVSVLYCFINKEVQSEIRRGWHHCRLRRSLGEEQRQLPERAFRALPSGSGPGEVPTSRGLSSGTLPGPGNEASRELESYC

[2] = 0.5% human plasma, read-out: hGLP1R 0.5% hP
[3] = 100% human plasma, read-out: hGLP1R 100% hP
[4] = 0.5% human plasma, read-out: hGIPR 0.5% hP
[5] = 100% human plasma, read-out: hGIPR 100% hP

T1 sequence (P43220 24-463): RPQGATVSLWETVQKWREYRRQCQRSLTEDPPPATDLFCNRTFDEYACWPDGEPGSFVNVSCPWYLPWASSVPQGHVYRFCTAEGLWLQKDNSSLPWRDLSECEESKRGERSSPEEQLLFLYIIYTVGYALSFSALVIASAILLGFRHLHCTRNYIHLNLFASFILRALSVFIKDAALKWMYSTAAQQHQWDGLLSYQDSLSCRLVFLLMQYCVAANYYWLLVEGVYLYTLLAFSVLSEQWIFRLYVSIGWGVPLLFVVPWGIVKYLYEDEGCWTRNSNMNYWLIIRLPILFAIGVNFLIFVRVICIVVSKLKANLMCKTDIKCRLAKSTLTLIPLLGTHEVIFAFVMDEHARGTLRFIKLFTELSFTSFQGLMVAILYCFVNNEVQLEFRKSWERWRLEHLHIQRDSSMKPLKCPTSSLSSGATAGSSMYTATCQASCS

Row | EC50 (hGLP1R; [2]) [nM] | EC50 (hGLP1R; [3]) [nM] | solubility at 2 h [1] [µg/mL] | EC50 (hGIPR; [4]) [nM] | EC50 (hGIPR; [5]) [nM] | solubility ([1]; read-out: Solubility) [µg/mL] | Structure (SMILES)
1 | 0.9 | 5 | 4000 | 0.3 | 7.1 | – | CC[C@H](C)[C@H](NC(=O)[C@H](CC(C)C)NC(=O)[C@H](Cc1c[nH]cn1)NC(=O)[C@H](CCCNC(=N)N)NC(=O)[C@@H](NC(=O)[C@H](Cc1ccccc1)NC(=O)[C@H](C)NC(=O)C(C)(C)NC(=O)[C@H](CCC(N)=O)NC(=O)[C@H](C)NC(=O)[C@H](CCC(N)=O)NC(=O)[C@H](CCCCN)NC(=O)[C@H](CCC(=O)O)NC(=O)[C@H](CC(C)C)NC(=O)C(C)(C)NC(=O)[C@@H](NC(=O)[C@H](CO)NC(=O)[C@H](Cc1ccc(O)cc1)NC(=O)[C@H](CC(=O)O)NC(=O)[C@H](CO)NC(=O)[C@@H](NC(=O)[C@H](Cc1ccccc1)NC(=O)[C@@H](NC(=O)CNC(=O)[C@H](CCC(=O)O)NC(=O)C(C)(C)NC(=O)[C@@H](N)Cc1ccc(O)cc1)[C@@H](C)O)[C@@H](C)O)[C@@H](C)CC)C(C)C)C(=O)N[C@@H](CC(N)=O)C(=O)N[C@@H](CCCCNC(=O)CC[C@H](NC(=O)CC[C@H](NC(=O)CC[C@H](NC(=O)CC[C@H](NC(=O)CC[C@H](NC(=O)CCCCCCCCCCCCCCCCC(=O)O)C(=O)O)C(=O)O)C(=O)O)C(=O)O)C(=O)O)C(=O)N[C@H](C(=O)N[C@H](C(=O)N[C@@H](CCCNC(=N)N)C(=O)N[C@@H](CCC(N)=O)C(=O)N[C@@H](CCCNC(=N)N)C(=O)N[C@@H](Cc1ccc(O)cc1)C(N)=O)[C@@H](C)O)[C@@H](C)CC [Compound 41, Y-Aib-E-G-T-F-T-S-D-Y-S-I-Aib-L-E-K-Q-A-Q-Aib-A-F-V-R-H-L-I-N-K(1,3)-I-T-R-Q-R-Y-NH2.C18DA-gGlu-gGlu-gGlu-gGlu-gGlu(1,2)]
2 | 0.1 | 1 | 8900 | 0.7 | – | – | CC[C@H](C)[C@H](NC(=O)[C@H](CCCCN)NC(=O)[C@H](CC(=O)O)NC(=O)[C@H](CC(C)C)NC(=O)C(C)(C)NC(=O)[C@@H](NC(=O)[C@H](CO)NC(=O)[C@H](Cc1ccc(O)cc1)NC(=O)[C@H](CC(=O)O)NC(=O)[C@H](CO)NC(=O)[C@@H](NC(=O)[C@H](Cc1ccccc1)NC(=O)[C@@H](NC(=O)CNC(=O)[C@H](CCC(=O)O)NC(=O)C(C)(C)NC(=O)[C@@H](N)Cc1ccc(O)cc1)[C@@H](C)O)[C@@H](C)O)[C@@H](C)CC)C(=O)N[C@@H](C)C(=O)N[C@@H](CCC(N)=O)C(=O)NC(C)(C)C(=O)N[C@@H](C)C(=O)N[C@@H](Cc1ccccc1)C(=O)N[C@H](C(=O)N[C@@H](CCCNC(=N)N)C(=O)N[C@@H](Cc1c[nH]cn1)C(=O)N[C@@H](CC(C)C)C(=O)N[C@H](C(=O)N[C@@H](CC(N)=O)C(=O)N[C@@H](CCCCNC(=O)[C@@H](N)CCCCNC(=O)CC[C@H](NC(=O)CC[C@H](NC(=O)CC[C@H](NC(=O)CC[C@H](NC(=O)CC[C@H](NC(=O)CC[C@H](NC(=O)CCCCCCCCCCCCCCCCC(=O)O)C(=O)O)C(=O)O)C(=O)O)C(=O)O)C(=O)O)C(=O)O)C(=O)NC(C)(C)C(=O)N[C@H](C(=O)N[C@@H](CCCNC(=N)N)C(=O)N[C@@H](CCC(N)=O)C(=O)N[C@@H](CCCNC(=N)N)C(=O)N[C@@H](Cc1ccc(O)cc1)C(N)=O)[C@@H](C)O)[C@@H](C)CC)C(C)C [Compound 33, Y-Aib-E-G-T-F-T-S-D-Y-S-I-Aib-L-D-K-I-A-Q-Aib-A-F-V-R-H-L-I-N-K(1,3)-Aib-T-R-Q-R-Y-NH2.C18DA-gGlu-gGlu-gGlu-gGlu-gGlu-gGlu-eLys(1,2)]
3 | 7 | – | – | 0.8 | – | 5100 | CC[C@H](C)[C@H](NC(=O)[C@H](CC(C)C)NC(=O)[C@H](Cc1c[nH]cn1)NC(=O)[C@H](CCCNC(=N)N)NC(=O)[C@@H](NC(=O)[C@H](Cc1ccccc1)NC(=O)[C@H](C)NC(=O)C(C)(C)NC(=O)[C@H](CCC(N)=O)NC(=O)[C@H](C)NC(=O)[C@H](CCC(N)=O)NC(=O)[C@H](CCCCN)NC(=O)[C@H](CCC(=O)O)NC(=O)[C@H](CC(C)C)NC(=O)C(C)(C)NC(=O)[C@H](C)NC(=O)[C@H](CO)NC(=O)[C@H](Cc1ccc(O)cc1)NC(=O)[C@H](CC(=O)O)NC(=O)[C@H](CO)NC(=O)[C@@H](NC(=O)[C@H](Cc1ccccc1)NC(=O)[C@@H](NC(=O)CNC(=O)[C@H](CCC(=O)O)NC(=O)C(C)(C)NC(=O)[C@@H](N)Cc1ccc(O)cc1)[C@@H](C)O)[C@@H](C)O)C(C)C)C(=O)N[C@@H](CC(N)=O)C(=O)N[C@@H](CCCCNC(=O)[C@@H](N)CCCCNC(=O)CC[C@H](NC(=O)CC[C@H](NC(=O)CC[C@H](NC(=O)CC[C@H](NC(=O)CC[C@H](NC(=O)CC[C@H](NC(=O)CCCCCCCCCCCCCCCCC(=O)O)C(=O)O)C(=O)O)C(=O)O)C(=O)O)C(=O)O)C(=O)O)C(=O)NC(C)(C)C(=O)N[C@H](C(=O)N[C@@H](CCCNC(=N)N)C(=O)N[C@@H](CCC(N)=O)C(=O)N[C@@H](CCCNC(=N)N)C(=O)N[C@@H](Cc1ccc(O)cc1)C(N)=O)[C@@H](C)O [Compound 156, Y-Aib-E-G-T-F-T-S-D-Y-S-A-Aib-L-E-K-Q-A-Q-Aib-A-F-V-R-H-L-I-N-K(1,3)-Aib-T-R-Q-R-Y-NH2.C18DA-gGlu-gGlu-gGlu-gGlu-gGlu-gGlu-eLys(1,2)]
4 | 0.2 | 1.7 | 8800 | 0.1 | 0.9 | – | CC[C@H](C)[C@H](NC(=O)[C@H](CC(C)C)NC(=O)[C@H](Cc1c[nH]cn1)NC(=O)[C@H](CCCNC(=N)N)NC(=O)[C@@H](NC(=O)[C@H](Cc1ccccc1)NC(=O)[C@H](C)NC(=O)C(C)(C)NC(=O)[C@H](CCC(N)=O)NC(=O)[C@H](C)NC(=O)[C@H](CCC(N)=O)NC(=O)[C@H](CCC(=O)O)NC(=O)[C@H](CCC(=O)O)NC(=O)[C@H](CC(C)C)NC(=O)[C@](C)(CC(C)C)NC(=O)[C@@H](NC(=O)[C@H](CO)NC(=O)[C@H](Cc1ccc(O)cc1)NC(=O)[C@H](CC(=O)O)NC(=O)[C@H](CO)NC(=O)[C@@H](NC(=O)[C@H](Cc1ccccc1)NC(=O)[C@@H](NC(=O)CNC(=O)[C@H](CCC(=O)O)NC(=O)C(C)(C)NC(=O)[C@@H](N)Cc1ccc(O)cc1)[C@@H](C)O)[C@@H](C)O)[C@@H](C)CC)C(C)C)C(=O)N[C@@H](CC(N)=O)C(=O)N[C@@H](CCCCNC(=O)[C@@H](N)CCCCNC(=O)CC[C@H](NC(=O)CC[C@H](NC(=O)CC[C@H](NC(=O)CC[C@H](NC(=O)CC[C@H](NC(=O)CC[C@H](NC(=O)CCCCCCCCCCCCCCCCCCC(=O)O)C(=O)O)C(=O)O)C(=O)O)C(=O)O)C(=O)O)C(=O)O)C(=O)NC(C)(C)C(=O)N[C@H](C(=O)N[C@@H](CCCNC(=N)N)C(=O)N[C@@H](CCC(N)=O)C(=O)N[C@@H](CCCNC(=N)N)C(=O)N[C@@H](Cc1ccc(O)cc1)C(N)=O)[C@@H](C)O [Compound 89, Y-Aib-E-G-T-F-T-S-D-Y-S-I-aMeL-L-E-E-Q-A-Q-Aib-A-F-V-R-H-L-I-N-K(1,3)-Aib-T-R-Q-R-Y-NH2.C20DA-gGlu-gGlu-gGlu-gGlu-gGlu-gGlu-eLys(1,2)]
